Data published in PMC5743070 (The Journal of Biological Chemistry, 2017).
Like-named read-outs stand apart in the source and are kept apart here.

What was measured:
solubility (statement) = assay type: physicochemical
TTD (UHRF1_121–286) [1] = molecular target: T1, TTD (UHRF1_121–286) (Homo sapiens, UniProt Q96T88); assay: HSQC competition of BPC and linker peptide on TTD; assay type: binding; conditions: BPC 2.4 mM, linker peptide 3.0 mM, 5% DMSO; I211, I212 and E281 resonances in HSQC
T1 construct: UHRF1_121–286 corresponding to the TTD; made in house
T1 sequence (Q96T88 121-286): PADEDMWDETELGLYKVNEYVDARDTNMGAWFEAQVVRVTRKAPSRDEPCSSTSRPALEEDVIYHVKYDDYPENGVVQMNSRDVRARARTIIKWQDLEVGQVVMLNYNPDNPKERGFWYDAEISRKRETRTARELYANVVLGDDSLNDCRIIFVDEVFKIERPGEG
Method: NMR samples were buffered in 20 mM sodium phosphate (pH 7.5), 150 mM NaCl, 5 mM DTT, 5 mM β-mercaptoethanol, 2 mM TCEP, and 10 μM ZnSO4. The protein concentration was between 200 and 300 μM for all samples. The data were collected at 25 °C on Bruker spectrometers equipped with cryoprobes and operating at 500, 600, or 800 MHz. The assignment of backbone TTD–PHD resonances was accomplished using the ABACUS method ([29]) for which standard backbone and ^15N-edited NOESY spectra were collected using ^15N/^13C/^2H- or ^15N/^13C-labeled protein. All 3D experiments were acquired using non-uniform sampling and processed using the software MDDGUI ([30]) or qMDD ([31]). ^15N-Labeled TTD–PHD was used to acquire ^15N T1 and T2 relaxation and ^1H-^15N heteronuclear NOE measurements ([32]) collected using standard Bruker pulse schemes in an interleaved manner. For T1 measurements, the variable delay was set to 0.1, 0.4, 0.8, 1.5, 2.0, 2.5, 3.5, and 5 s. For T2 measurements, the variable delay was set to 16, 32, 48, 64, 80, 96, 128, and 144 ms. The D1 was 3 s for all experiments. Reported values were the average from two measurements. All spectra were processed using NMRPipe ([33]) and analyzed with SPARKY ([34]). […]
trated by the perturbation of I211, I212 and E281 resonances in HSQC spectra of the TTD in a competition assay. […]

TTD–PHD (UHRF1_126–366) = molecular target: T2, TTD–PHD (UHRF1_126–366) (Homo sapiens, UniProt Q96T88); assay: (1H-15N) TROSY NMR titration of TTD–PHD; assay type: binding
T2 construct: His tag (TEV-cleavable) (N); made in house
T2 sequence (Q96T88 126-366): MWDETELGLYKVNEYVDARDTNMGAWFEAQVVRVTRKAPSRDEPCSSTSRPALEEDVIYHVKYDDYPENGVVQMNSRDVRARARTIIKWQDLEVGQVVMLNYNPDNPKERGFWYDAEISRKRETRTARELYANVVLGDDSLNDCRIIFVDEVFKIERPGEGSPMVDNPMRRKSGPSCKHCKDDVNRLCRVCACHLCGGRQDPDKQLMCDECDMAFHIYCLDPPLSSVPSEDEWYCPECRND
Method: Exchange broadening is clearly observed for Arg^282, Gly^284, Asp^291, Asn^292, Met^294, and Ser^301 amide resonances at 1:3 protein/BPC ratios, with perturbations also seen with Gly^286 and Gly^299 (Fig. 4 and supplemental Fig. S6).
(§1) NMR samples were buffered in 20 mM sodium phosphate (pH 7.5), 150 mM NaCl, 5 mM DTT, 5 mM β-mercaptoethanol, 2 mM TCEP, and 10 μM ZnSO4. The protein concentration was between 200 and 300 μM for all samples. The data were collected at 25 °C on Bruker spectrometers equipped with cryoprobes and operating at 500, 600, or 800 MHz. The assignment of backbone TTD–PHD resonances was accomplished using the ABACUS method ([29]) for which standard backbone and ^15N-edited NOESY spectra were collected using ^15N/^13C/^2H- or ^15N/^13C-labeled protein. All 3D experiments were acquired using non-uniform sampling and processed using the software MDDGUI ([30]) or qMDD ([31]). ^15N-Labeled TTD–PHD was used to acquire ^15N T1 and T2 relaxation and ^1H-^15N heteronuclear NOE measurements ([32]) collected using standard Bruker pulse schemes in an interleaved manner. For T1 measurements, the variable delay was set to 0.1, 0.4, 0.8, 1.5, 2.0, 2.5, 3.5, and 5 s. For T2 measurements, the variable delay was set to 16, 32, 48, 64, 80, 96, 128, and 144 ms. The D1 was 3 s for all experiments. Reported values were the average from two measurements. All spectra were processed using NMRPipe ([33]) and analyzed with SPARKY ([34]).

TTD (UHRF1_121–286) [2] = molecular target: T1, TTD (UHRF1_121–286); assay: (1H-15N) HSQC NMR titration of TTD; assay type: binding; conditions: for Kd: HSQC titration, ~250 μM TTD, 5% DMSO, pH 7.5, 25 °C
From the text: We designed a fragment library containing 2,040 compounds that was initially screened against isolated TTD (UHRF1_121–286) using a fluorescence polarization (FP) assay that tracked the displacement of a N-terminally tagged H3K9me3 peptide (H3K9me3(1–25)). From this screen, eight putative TTD-binding hits were identified. […] Because of limited commercial availability of the tricyclic amine, we focused only on BPC. The binding of this compound occurs close to (or within) the Arg^296-binding pocket; we observe significant perturbation of Trp^238 and Phe^278 resonances that form part of the pocket, and in Gly^236, which is directly adjacent to it (Fig. 4A and supplemental Fig. S5). We also see chemical shift changes in non-surface exposed residues that are close to or are in contact with the groove.
as §1
Figure S5 (related to Fig. 4)
Binding of BPC in the groove of TTD. […]
labeled (at the N-terminus) H3K9me3(1-25) peptide, (B) ITC, and (C) DSF. (D) KD estimates of BPC bind-ing based on I211 and Y239 amide peak movement (where Δ(ppm) = ((ΔδHN)2 + (ΔδN/6.5)2 )1⁄2) in (1H-15N) HSQC spectra when the TTD is titrated with BPC. […]
as a function of TTD sequence resulting from BPC (blue) or PBR peptide (red) binding. (F) HSQC overlays […]
ment:protein), and PBR peptide ratios (bottom spectrum - from 1:1 to 5:1 peptide:protein). The protein con-centration was ~250 µM for all NMR experiments, and the DMSO concentration was 5% for NMR titrations […]
(1 picture or pasted object on this page, not shown here)

- solubility (solubility (statement)): highly soluble
- competition for the TTD groove (TTD (UHRF1_121–286) [1]): compete directly for the TTD groove
- effect on TTD–PHD conformation (TTD–PHD (UHRF1_126–366); Fig. 4): promote open TTD–PHD conformations
- binding site on TTD by amide peak movement (TTD (UHRF1_121–286) [2]; (1H-15N) HSQC spectra of TTD): occurs in the groove
- Kd (TTD (UHRF1_121–286) [2]; residue I211, read-out: KD estimate from I211 amide peak movement): 78 µM
- Kd (TTD (UHRF1_121–286) [2]; residue Y239, read-out: KD estimate from Y239 amide peak movement): 76 µM
SMILES: N=C(N)N1CCC(Cc2ccccc2)CC1 [BPC, 4-benzylpiperidine-1-carboximidamide]
- effect on linker resonances of TTD–PHD (TTD–PHD (UHRF1_126–366); (1H-15N) TROSY, ~250 μM protein/750 μM ligand): significant conformational broadening and/or movement of amide peaks
